Measurements published in EP4755888A1 (ILAb Co., Ltd., priority 2023, dated 2025).

These compounds were tested against PD-1/PD-L1 (Homo sapiens, UniProt Q9NZQ7) (assay: TR-FRET PD-1/PD-L1 binding inhibition at the molecular level (free proteins)). Conditions: Tag1-PD-L1 and Tag2-PD-1 proteins, twelve concentrations from 200 nM, 2 hours at room temperature, read-out: FRET assay (IC50).
Summary of the method: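 HTRF read-out at 665/620 nm after 2 h at room temperature. Detection used anti-Tag1 Eu cryptate plus anti-Tag2 XL665 antibodies. Tagged PD-L1 and PD-1 proteins were pre-mixed with compound across twelve […] 1:2 dilutions starting at 200 nM.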

Sequence of PD-1/PD-L1 (Q9NZQ7 19-238 limits assumed): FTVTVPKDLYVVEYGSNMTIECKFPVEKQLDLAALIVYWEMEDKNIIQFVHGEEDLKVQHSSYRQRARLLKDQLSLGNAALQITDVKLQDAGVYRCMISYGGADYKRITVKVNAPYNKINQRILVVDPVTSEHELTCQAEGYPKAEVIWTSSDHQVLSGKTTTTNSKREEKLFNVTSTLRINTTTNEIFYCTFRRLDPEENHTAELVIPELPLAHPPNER

Compound | IC50 [nM]
O=C(Nc1cccc(-c2cccc(Nc3nccc4nccnc34)c2Cl)c1Cl)c1cc2n(n1)CCC[C@@H]2N1CC(C(=O)O)C1 [Compound 264, (S)-1-(2-((2,2'-dichloro-3'-(pyrido[3,4-b]pyrazin-5-ylamino)-[1,1'-biphenyl]-3-yl)carbamoyl)-4,5,6,7-tetrahydropyrazolo[1,5-a]pyridin-4-yl)azetidine-3-carboxylic acid] | < 10
Cc1c(NC(=O)c2ccc(CN3CC[C@@H](O)C3)cn2)cccc1-c1cccc(NC(=O)c2cc3n(n2)CCC[C@@H]3N2CC(C(=O)O)C2)c1C [Compound 265, 1-((S)-2-((3'-(5-(((R)-3-hydroxypyrrolidin-1-yl)methyl)picolinamido)-2,2'-dimethyl-[1,1'-biphenyl]-3-yl)carbamoyl)-4,5,6,7-tetrahydropyrazolo[1,5-a]pyridin-4-yl)azetidine-3-carboxylic acid] | < 10
Cc1c(NC(=O)c2cc3n(n2)CCC[C@@H]3N2CCC(C(=O)O)CC2)cccc1-c1cccc(Nc2nc(C(F)F)nc3cc(CN4CC[C@@H](O)C4)cnc23)c1C [Compound 267, 1-((S)-2-((3'-((2-(difluoromethyl)-7-(((R)-3-hydroxypyrrolidin-1-yl)methyl)pyrido[3,2-d]pyrimidin-4-yl)amino)-2,2'-dimethyl-[1,1'-biphenyl]-3-yl)carbamoyl)-4,5,6,7-tetrahydropyrazolo[1,5-a]pyridin-4-yl)piperidine-4-carboxylic acid] | < 10
Cc1c(NC(=O)c2cc3n(n2)CCC[C@H]3N2CCC(C(=O)O)CC2)cccc1-c1cccc(Nc2nc(C(F)F)nc3cc(CN4CC[C@@H](O)C4)cnc23)c1C [Compound 268, 1-((R)-2-((3'-((2-(difluoromethyl)-7-(((R)-3-hydroxypyrrolidin-1-yl)methyl)pyrido[3,2-d]pyrimidin-4-yl)amino)-2,2'-dimethyl-[1,1'-biphenyl]-3-yl)carbamoyl)-4,5,6,7-tetrahydropyrazolo[1,5-a]pyridin-4-yl)piperidine-4-carboxylic acid] | 10 to 100
O=C(Nc1cccc(-c2cccc(Nc3nc(C(F)F)nc4cc(CN5CC(F)C5)cnc34)c2Cl)c1Cl)c1cc2n(n1)CCC[C@@H]2N1CCC(O)CC1 [Compound 269, (S)-N-(2,2'-dichloro-3'-((2-(difluoromethyl)-7-((3-fluoroazetidin-1-yl)methyl)pyrido[3,2-d]pyrimidin-4-yl)amino)-[1,1'-biphenyl]-3-yl)-4-(4-hydroxypiperidin-1-yl)-4,5,6,7-tetrahydropyrazolo[1,5-a]pyridine-2-carboxamide] | 10 to 100
O=C(Nc1cccc(-c2cccc(Nc3nc(C(F)F)nc4cc(CN5CC(F)C5)cnc34)c2Cl)c1Cl)c1cc2n(n1)CCC[C@H]2N1CCC(O)CC1 [Compound 270, (R)-N-(2,2'-dichloro-3'-((2-(difluoromethyl)-7-((3-fluoroazetidin-1-yl)methyl)pyrido[3,2-d]pyrimidin-4-yl)amino)-[1,1'-biphenyl]-3-yl)-4-(4-hydroxypiperidin-1-yl)-4,5,6,7-tetrahydropyrazolo[1,5-a]pyridine-2-carboxamide] | 10 to 100
O=C(Nc1cccc(-c2cccc(Nc3nc(C(F)F)nc4cc(CN5CC(F)(F)C5)cnc34)c2Cl)c1Cl)c1cc2n(n1)CCC[C@@H]2N1CCC(O)CC1 [Compound 271, (S)-N-(2,2'-dichloro-3'-((7-((3,3-difluoroazetidin-1-yl)methyl)-2-(difluoromethyl)pyrido[3,2-d]pyrimidin-4-yl)amino)-[1,1'-biphenyl]-3-yl)-4-(4-hydroxypiperidin-1-yl)-4,5,6,7-tetrahydropyrazolo[1,5-a]pyridine-2-carboxamide] | 10 to 100
O=C(Nc1cccc(-c2cccc(Nc3nc(C(F)F)nc4cc(CN5CC(F)(F)C5)cnc34)c2Cl)c1Cl)c1cc2n(n1)CCC[C@H]2N1CCC(O)CC1 [Compound 272, (R)-N-(2,2'-dichloro-3'-((7-((3,3-difluoroazetidin-1-yl)methyl)-2-(difluoromethyl)pyrido[3,2-d]pyrimidin-4-yl)amino)-[1,1'-biphenyl]-3-yl)-4-(4-hydroxypiperidin-1-yl)-4,5,6,7-tetrahydropyrazolo[1,5-a]pyridine-2-carboxamide] | 10 to 100
O=C(Nc1cccc(-c2cccc(Nc3nc(C(F)(F)F)nc4cccnc34)c2Cl)c1Cl)c1cc2n(n1)CCC[C@@H]2N1CCC(C(=O)O)CC1 [Compound 273, (S)-1-(2-((2,2'-dichloro-3'-((2-(trifluoromethyl)pyrido[3,2-d]pyrimidin-4-yl)amino)-[1,1'-biphenyl]-3-yl)carbamoyl)-4,5,6,7-tetrahydropyrazolo[1,5-a]pyridin-4-yl)piperidine-4-carboxylic acid] | 10 to 100
O=C(Nc1cccc(-c2cccc(Nc3nc(C(F)(F)F)nc4cccnc34)c2Cl)c1Cl)c1cc2n(n1)CCC[C@H]2N1CCC(C(=O)O)CC1 [Compound 274, (R)-1-(2-((2,2'-dichloro-3'-((2-(trifluoromethyl)pyrido[3,2-d]pyrimidin-4-yl)amino)-[1,1'-biphenyl]-3-yl)carbamoyl)-4,5,6,7-tetrahydropyrazolo[1,5-a]pyridin-4-yl)piperidine-4-carboxylic acid] | 10 to 100
CC(C)(N[C@H]1CCCn2nc(C(=O)Nc3cccc(-c4cccc(Nc5nc(C(F)(F)F)nc6cccnc56)c4Cl)c3Cl)cc21)C(=O)O [Compound 275, (S)-2-((2-((2,2'-dichloro-3'-((2-(trifluoromethyl)pyrido[3,2-d]pyrimidin-4-yl)amino)-[1,1'-biphenyl]-3-yl)carbamoyl)-4,5,6,7-tetrahydropyrazolo[1,5-a]pyridin-4-yl)amino)-2-methylpropanoic acid] | 10 to 100
CC(C)(N[C@@H]1CCCn2nc(C(=O)Nc3cccc(-c4cccc(Nc5nc(C(F)(F)F)nc6cccnc56)c4Cl)c3Cl)cc21)C(=O)O [Compound 276, (R)-2-((2-((2,2'-dichloro-3'-((2-(trifluoromethyl)pyrido[3,2-d]pyrimidin-4-yl)amino)-[1,1'-biphenyl]-3-yl)carbamoyl)-4,5,6,7-tetrahydropyrazolo[1,5-a]pyridin-4-yl)amino)-2-methylpropanoic acid] | < 10
O=C(Nc1cccc(-c2cccc(Nc3nc(C(F)(F)F)nc4cccnc34)c2Cl)c1Cl)c1cc2n(n1)CCC[C@@H]2N1CC(C(=O)O)C1 [Compound 277, (S)-1-(2-((2,2'-dichloro-3'-((2-(trifluoromethyl)pyrido[3,2-d]pyrimidin-4-yl)amino)-[1,1'-biphenyl]-3-yl)carbamoyl)-4,5,6,7-tetrahydropyrazolo[1,5-a]pyridin-4-yl)azetidine-3-carboxylic acid] | 10 to 100
O=C(Nc1cccc(-c2cccc(Nc3nc(C(F)(F)F)nc4cccnc34)c2Cl)c1Cl)c1cc2n(n1)CCC[C@H]2N1CC(C(=O)O)C1 [Compound 278, (R)-1-(2-((2,2'-dichloro-3'-((2-(trifluoromethyl)pyrido[3,2-d]pyrimidin-4-yl)amino)-[1,1'-biphenyl]-3-yl)carbamoyl)-4,5,6,7-tetrahydropyrazolo[1,5-a]pyridin-4-yl)azetidine-3-carboxylic acid] | 10 to 100
Cc1nc(Nc2cccc(-c3cccc(NC(=O)c4cc5n(n4)CCC[C@@H]5NC(C)(C)C(=O)O)c3Cl)c2Cl)c2ncccc2n1 [Compound 279, (S)-2-((2-((2,2'-dichloro-3'-((2-methylpyrido[3,2-d]pyrimidin-4-yl)amino)-[1,1'-biphenyl]-3-yl)carbamoyl)-4,5,6,7-tetrahydropyrazolo[1,5-a]pyridin-4-yl)amino)-2-methylpropanoic acid] | 10 to 100
